Measurements taken from US6858402B2 (The Regents of the University of California, priority 1996, dated 2005).
“And” between values parts separate entries of the source, which are not always exact repeats. Equal values may be shown once. Each block holds one molecule with its values, some of them ahead of it. Numbered stars: 1 amine (or outer) side, 2 acyl side, 3 side chain; on linkers, the order of the positions; unused ones are H or OH. Bridge positions count the residues as written; N and C are the ends. Square brackets hold non-standard residues; d marks the D form. Peptide text beside a SMILES is read from it. I, II: the chains in the order shown. Actinocin(9to1) = Cc1c2oc3c(C)ccc(C(=O)[*:1])c3nc-2c(C(=O)[*:2])c(N)c1=O; NMeV = CN[C@H](C(=O)O)C(C)C; Sar = CNCC(=O)O

Columns and labels:
[1] = test system: TRRE; assay: Effect of protease inhibitors and divalent metal ions on partially-purified TRRE activity; type: biochemical, human; details: for effect on TRRE activity: partially-purified TRRE
Method: C75R cells and COS-1 cells were seeded into 24-well culture plates at a density of 2.5×10^5 cells/ml/well and incubated overnight (for 12 to 16 hours) in 5% CO2 at 37° C. […] (corresponding to A and C mentioned below, respectively). Simultaneously, C75R cells in 24-well plates were also incubated with 300 μl of fresh medium or buffer (corresponding to B mentioned below).
The precipitate was pelleted by centrifugation at 10,000×g for 30 min and resuspended in PBS in approximately twice the volume of the pellet. This solution was then dialyzed at 4° C. against 10 mM Tris-HCl, 60 mM NaCl, pH 7.0. This sample was loaded on an anion-exchange chromatography, Diethylaminoethyl (DEAE)-Sephadex A-25 column (Pharmacia Biotech) (2.5×10 cm) previously equilibrated with 50 mM Tris-HCl, 60 mM NaCl, pH 8.0.
Protease inhibitors were purchased from Sigma Chemical (St. Louis, Mo.), including phenylmethylsulfonyl fluoride (PMSF), 4-(2-aminoethyl)-benzenesulfonyl fluoride (AEBSF), 3,4-dichloroisocoumarin (3,4-DCI), N-α-tosyl-L-lysine chloromethyl ketone (TLCK), N-tosyl-L-phenylalanine chloromethyl ketone (TPCK), ethylenediaminetetraacetic acid (EDTA), ethyleneglycol bis (2-aminoethyl ether) tetraacetic acid (EGTA), 1,10-phenanthroline, and phosphoramidon. These inhibitors can be divided into the following classes: (i) serine protease inhibitors (4 mM PMSF, 0.5 mM AEBSF, and 0.1 mM 3,4-DCI); (ii) serine and cysteine protease inhibitors (0.1 mM TLCK and TPCK); (iii) chelating agents (2 mM EDTA, EGTA, and 1,10-phenanthroline); (iv) a metallo-endoprotease inhibitor (0.5 mM phosphoramidon); and (v) divalent heavy metal ions (2 mM CaCl2, MgCl2, MnCl2, ZnCl2, CoCl2, CuCl2, and FeCl2). […] The percent activity remaining (% control) was expressed relative to the control.
The percent activity remaining (% control) was calculated as above.

[2] = test system: sTNF-R; details: Seitz et al. (1997); cited from earlier work
[3] = test system: THP-1 cells; assay: Effect of inhibitors co-incubated with PMA on TRRE production; type: cell-based, human
Excerpt: Several inhibitors including cycloheximide (Chx) (an inhibitor of protein synthesis), actinomycin D (ActD) (an inhibitor of RNA synthesis), N-ethylmaleimide (NEM) (an inhibitor of membrane internalization and movement), cytochalasin B (CytB) (an inhibitor of microfilament formation), and colchicine (Col) (an inhibitor of microtubule formation) were purchased from Sigma Chemical (St. Louis, Mo.). THP-1 cells at a density of 1×10^6 cells/ml in RPMI-1640/1% FCS with 10^−6 M PMA was co-stimulated along with 10 μg/ml Chx, 1 μg/ml ActD, 1 mM NEM, 0.1 mM CytB, or 0.1 mM Col for 30 min at 37° C. in 5% CO2. Following centrifugation at 400×g for 5 min, the supernatant was discarded and the cells were washed once with serum-free medium. The cells were incubated for an additional 2 hours at the same density (1×10^6 cells/ml) in PMA-free RPMI-1640 with corresponding inhibitors.

[4] = test system: Lipopolysaccharide-induced shock; details: Yamamoto et al. (1997); cited from earlier work
[5] = test system: THP-1 cells; assay: Induction of TRRE by cytokines and hormones; type: cell-based, human; details: 2 hours stimulation, insulin 10^−7 M, IL-1β 10 ng/ml, IL-6 100 ng/ml; for induction of TRRE activity: IL-10 100 ng/ml, epinephrine 10^−6 M
[6] = test system: THP-1 cells; assay: Effect of inhibitors co-incubated with PMA on TRRE production; type: cell-based, human; details: inhibitor 0.01 mM with 10^−6 M PMA
[7] = target: human soluble p75 TNF-R (human) (UniProt P20333); assay: soluble p75 TNF-R-Affigel 10 affinity chromatography of TRRE after reaction with C75R cells; TRRE activity assay of fractions
[8] = target: human p75 TNF-R (membrane-bound, on C75R transfected COS-1 cells or on THP-1 cells) (human) (UniProt P20333); assay: cell-based or functional assay
[9] = target: TNF-R on L929 cells (murine); assay: cell-based or functional assay
[10] = target: human p55 TNF-R (on THP-1 cells) (human) (UniProt P19438); assay: cell-based or functional assay
[11] = 2 mM, preincubated 37° C. 30 min (Table 5)
[12] = 0.1 mM, preincubated 37° C. 30 min (Table 5)
[13] = 0.5 mM, preincubated 37° C. 30 min (Table 5)
[14] = inhibitor 0.1 mM with 10^−6 M PMA
[15] = inhibitor 1 mM with 10^−6 M PMA

Chain of human p75 TNF-R (membrane-bound, on C75R transfected COS-1 cells or on THP-1 cells) (human) (P20333 23-461 C75R limits assumed): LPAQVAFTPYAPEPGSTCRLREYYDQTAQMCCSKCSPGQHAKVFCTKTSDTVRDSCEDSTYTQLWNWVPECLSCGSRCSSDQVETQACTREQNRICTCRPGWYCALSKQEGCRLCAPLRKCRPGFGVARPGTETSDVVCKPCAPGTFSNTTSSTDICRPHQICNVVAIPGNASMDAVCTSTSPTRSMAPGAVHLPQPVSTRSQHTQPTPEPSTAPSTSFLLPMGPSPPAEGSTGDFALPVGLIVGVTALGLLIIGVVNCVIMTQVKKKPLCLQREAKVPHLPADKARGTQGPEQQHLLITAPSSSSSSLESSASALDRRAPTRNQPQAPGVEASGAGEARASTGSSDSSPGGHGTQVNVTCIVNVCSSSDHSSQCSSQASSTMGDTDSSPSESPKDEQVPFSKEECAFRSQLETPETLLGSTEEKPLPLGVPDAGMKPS
Chain of human p55 TNF-R (on THP-1 cells) (human) (P19438 30-455): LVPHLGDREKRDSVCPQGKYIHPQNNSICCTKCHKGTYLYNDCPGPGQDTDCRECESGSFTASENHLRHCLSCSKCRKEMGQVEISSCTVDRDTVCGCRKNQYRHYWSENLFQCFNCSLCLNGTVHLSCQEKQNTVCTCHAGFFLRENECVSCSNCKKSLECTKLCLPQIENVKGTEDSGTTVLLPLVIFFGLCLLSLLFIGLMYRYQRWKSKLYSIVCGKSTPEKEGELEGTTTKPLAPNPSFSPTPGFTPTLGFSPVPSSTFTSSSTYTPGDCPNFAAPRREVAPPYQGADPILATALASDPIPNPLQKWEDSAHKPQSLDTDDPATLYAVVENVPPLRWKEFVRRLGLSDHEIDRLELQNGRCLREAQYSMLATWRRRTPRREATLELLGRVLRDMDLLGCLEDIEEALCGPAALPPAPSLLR

Molecule: [Cl][Fe][Cl] [Fe^2+, FeCl2]
% Control of TRRE activity [1, 11]: 98 ± 8%

Molecule: [Cl][Cu][Cl] [Cu^2+, CuCl2]
% Control of TRRE activity [1, 11]: 47% and 47 ± 21%

Molecule: [Cl-].[Cl-].[Co+2] [Co^2+, CoCl2]
% Control of TRRE activity [1, 11]: 123% and 123 ± 15%

Molecule: Cc1ccc(S(=O)(=O)N[C@@H](CCCCN)C(=O)CCl)cc1 [TLCK, N-α-tosyl-L-lysine chloromethyl ketone]
% Control of TRRE activity [1, 12]: 108 ± 5%
effect on TRRE activity [1]: no effect

Molecule: [Cl-].[Cl-].[Zn+2] [Zn^2+, ZnCl2]
% Control of TRRE activity ([1]; 0.1 mM (Table 6)): 122±6%
% Control of TRRE activity [1, 11]: 23% and 23 ± 15%

Molecule: O=S(=O)(F)Cc1ccccc1 [PMSF, phenylmethylsulfonyl fluoride]
% Control of TRRE activity ([1]; 4 mM, preincubated 37° C. 30 min (Table 5)): 116 ± 4%
effect on TRRE activity [1]: no effect

Molecule: CCCCC[C@H](O)/C=C/[C@H]1[C@H](O)CC(=O)[C@@H]1C/C=C\CCCC(=O)O [prostaglandin E2]
sTNF-R shedding [2]: not affected

Molecule: C[C@@H]1C[C@@H]([C@H](O)CC2CC(=O)NC(=O)C2)C(=O)[C@@H](C)C1 [Cycloheximide, cycloheximide]
% of TRRE production ([3]; inhibitor 10 μg/ml with 10^−6 M PMA): 97%
% of TRRE production ([3]; inhibitor 10 μg/ml with 10^−6 M PMA, listed as Chx): 104%

Molecule: O=C(C(=O)N1CCn2nc(-c3ccc(F)cc3)c(-c3ccncc3)c2N1)c1ccccc1.O=S(=O)(O)O [FR167653]
Lipopolysaccharide-induced shock [4]: ameliorated

Molecule: gold sodium thiomalate
sTNF-R shedding [2]: not affected

Molecule: O=C(O)CN(CCN(CC(=O)O)CC(=O)O)CC(=O)O [EDTA, ethylenediaminetetraacetic acid]
% Control of TRRE activity [1, 11]: 67% and 67 ± 7%

Molecule: O=c1oc(Cl)c(Cl)c2ccccc12 [3,4-DCI, 3,4-dichloroisocoumarin]
% Control of TRRE activity [1, 12]: 108 ± 4%
effect on TRRE activity [1]: no effect

Molecule: O=C(O)CN(CCOCCOCCN(CC(=O)O)CC(=O)O)CC(=O)O [EGTA, ethyleneglycol bis (2-aminoethyl ether) tetraacetic acid]
% Control of TRRE activity [1, 11]: 73% and 73 ± 4%

Molecule: IL-1β: cytokine
induction of TRRE activity [5]: no apparent TRRE activity
induction of sTNF-R [5]: induced sTNF-R

Molecule: N-tosyl-L-phenylalanine chloromethyl ketone [TPCK]
% Control of TRRE activity [1, 12]: 107 ± 7%
effect on TRRE activity [1]: no effect

Molecule: Cc1c2oc3c(C)ccc(C(=O)N[C@@H]4C(=O)N[C@H](C(C)C)C(=O)N5CCC[C@H]5C(=O)N(C)CC(=O)N(C)[C@@H](C(C)C)C(=O)O[C@@H]4C)c3nc-2c(C(=O)N[C@@H]2C(=O)N[C@H](C(C)C)C(=O)N3CCC[C@H]3C(=O)N(C)CC(=O)N(C)[C@@H](C(C)C)C(=O)O[C@@H]2C)c(N)c1=O [Actinomycin D, actinomycin D] (I: T[dV]P[Sar][NMeV] / II: T[dV]P[Sar][NMeV]; ester I:1-I:C, II:1-II:C; linker I:N-II:N via Actinocin(9to1))
% of TRRE production ([3]; inhibitor 1 μg/ml with 10^−6 M PMA): 104%
% of TRRE production ([3]; inhibitor 1 μg/ml with 10^−6 M PMA, listed as ActD): 97%

Molecule: NCCc1ccc(S(=O)(=O)F)cc1 [AEBSF, 4-(2-aminoethyl)-benzenesulfonyl fluoride]
% Control of TRRE activity [1, 13]: 92 ± 8%
effect on TRRE activity [1]: no effect

Molecule: insulin: hormone
induction of TRRE activity [5]: no apparent TRRE activity
induction of sTNF-R [5]: induced sTNF-R

Molecule: C=C1[C@@H](C)[C@H]2[C@H](Cc3ccccc3)NC(=O)[C@]23OC(=O)/C=C/[C@H](O)CCC[C@@H](C)C/C=C/[C@H]3[C@@H]1O [Cytochalasin B, cytochalasin B]
% of TRRE production [3, 14]: 91%
% of TRRE production [6]: 103%

Molecule: [Cl][Mn][Cl] [Mn^2+, MnCl2]
% Control of TRRE activity [1, 11]: 157% and 157 ± 33%

Molecule: CCN1C(=O)C=CC1=O [N-ethyl-maleimide, N-ethylmaleimide]
% of TRRE production [3, 15]: 17%

Molecule: IL-6: cytokine
induction of TRRE activity [5]: no apparent TRRE activity
induction of sTNF-R [5]: induced sTNF-R

Molecule: COc1cc2c(c(OC)c1OC)-c1ccc(OC)c(=O)cc1[C@@H](NC(C)=O)CC2 [Colchicine, colchicine]
% of TRRE production [3, 14]: 111%
% of TRRE production [3, 15]: 125%
% of TRRE production [6]: 95%

Molecule: [Cl-].[Cl-].[Mg+2] [Mg^2+, MgCl2]
% Control of TRRE activity [1, 11]: 127% and 127 ± 9%

Molecule: c1cnc2c(c1)ccc1cccnc12 [1,10-Phenanthroline, 1,10-phenanthroline]
% Control of TRRE activity ([1]; 2 mM (Table 6)): 47 ± 9%
% Control of TRRE activity [1, 11]: 41 ± 6%
% Control of TRRE activity ([1]; 2 mM, preincubated 37° C. 30 min (Table 5), listed as 1,10-phenanthroline): 41%

Molecule: [Ca+2].[Cl-].[Cl-] [Ca^2+, CaCl2]
% Control of TRRE activity [1, 11]: 151% and 151 ± 23%
% Control of TRRE activity ([1]; 4 mM (Table 6)): 189±4%

percent of recovered TRRE activity in the elution of the soluble p75 TNF-R affinity column [7]: 25%
percent of recovered TRRE activity in the flow through of the soluble p75 TNF-R affinity column (not retained) [7]: 53%
percent of recovered TRRE activity in the wash of the soluble p75 TNF-R affinity column (not retained) [7]: 22%
cell surface expression on THP-1 cells after 5,000 U/ml TRRE (flow cytometry, percent control of MFI) [8]: 49 % control
soluble p75 TNF-R released from THP-1 cells (ELISA) after 1,000 U/ml TRRE for 30 min [8]: 1660 pg/mL
cell surface expression on THP-1 cells after 5,000 U/ml TRRE (flow cytometry, percent control of MFI) [10]: 8 % control
soluble p55 TNF-R released from THP-1 cells (ELISA) after 1,000 U/ml TRRE for 30 min [10]: 2380 pg/mL
Molecule: TNF receptor releasing enzyme (TRRE), from PMA-stimulated THP-1 cells
ratio of surviving L929 cells with 4 ng/ml TNF to cells without TNF, pretreated with 100 U/ml TRRE (control without TRRE: 24%) [9]: 30%
ratio of surviving L929 cells with 4 ng/ml TNF to cells without TNF, pretreated with 500 U/ml TRRE (control without TRRE: 24%) [9]: 38%
ratio of surviving L929 cells with 4 ng/ml TNF to cells without TNF, pretreated with 2,500 U/ml TRRE (control without TRRE: 24%) [9]: 74%

Molecule: CC(C)C[C@H](NP(=O)(O)O[C@@H]1O[C@@H](C)[C@H](O)[C@@H](O)[C@H]1O)C(=O)N[C@@H](Cc1c[nH]c2ccccc12)C(=O)O [Phosphoramidon, phosphoramidon]
% Control of TRRE activity [1, 13]: 84 ± 13%

Molecule: CNC[C@H](O)c1ccc(O)c(O)c1 [epinephrine]
induction of TRRE activity [5]: induced TRRE activity

B1: IL-10: cytokine (protein, UniProt P22301 19-178, looked up)
Interleukin-10: SPGQGTQSENSCTHFPGNLPNMLRDLRDAFSRVKTFFQMKDQLDNLLLKESLLEDFKGYLGCQALSEMIQFYLEEVMPQAENQDPDIKAHVNSLGENLKTLRLRLRRCHRFLPCENKSKAVEQVKNAFNKLQEKGIYKAMSEFDIFINYIEAYMTMKIRN
induction of TRRE activity [5]: induced TRRE activity
